Assay results: patent US9480695B2, “Methods for inducing orexin neurons and agent for treating narcolepsy or eating disorder” (THE UNIVERSITY OF TOKYO, priority 2011, dated 2016)

Tested on: endbrain-derived neurosphere (NSph)
Test: Orexin inducing action on mouse fetus-derived neurosphere (NSph), RT-PCR
Assay type: cell-based
Conditions: 1 mM from initiation of NSph culture, 6 days plus 10 days differentiation; FIG. 7
Procedure: A culture and differentiation induction experiment was performed based on the method of Ciccolini and Svendsen (1998, J Neurosci. 18(19): 7869-80). An endbrain was removed from a C57BL/6N mouse fetus having an embryonic age of 14.5 days in ice-cold PBS/0.6% glucose. Dispersion into a single cell was performed by pipetting, and cells were suspended in a medium for NSph [DMEM/F12 (Wako) containing 1×B27 (Invitrogen), 20 ng/ml EGF (Sigma), 20 ng/ml FGF-basic (PEPROTECH), 5 μg/ml heparin (Sigma)] and seeded on a 10 cm petri dish in an amount of 2×10^6 cells/10 ml. Half the amount of the medium was exchanged 3 days after initiation of culturing, and culturing was performed for another 3 days (total 6 days).
NSph was recovered 6 days after initiation of culturing, and cells were dispersed by pipetting in PBS/0.6% glucose. Cells were collected by centrifugation and suspended in a medium for differentiation induction (not containing EGF, FGF-basic and heparin of a medium for NSph). Cells were seeded in an amount of 4.5×10^5 cells/7.5 ml on a 6 cm dish which had been coated with poly-L-lysine/laminin (both Sigma) in advance, and differentiation was induced. Half the amount of the medium was exchanged 5 days after initiation of differentiation induction, and culturing was performed for another 5 days (total 10 days). […]

## CC(=O)N[C@@H]1C(O)O[C@H](CO)[C@@H](O)[C@@H]1O (stereo partly drawn) [ManNAc, N-acetyl-D-mannosamine]
  Expression of Hcrt: detected only in a 1.0 mM ManNAc-added culture
